Series [1] concerns HUVEC. Description: Cytotoxicity against HUVEC assessed as reduction in cell viability after 24 hrs by MTT assay. The format is cell-based. The settings on record: human.
Series [2] relates to HUVEC. Kind of series: Antiangiogenic activity in HUVEC assessed as inhibition of vascular endothelial tube formation at 3.125 uM after 24 hrs by matrigel assay relative to control. The class given is functional. The note with it: Homo sapiens.
The test system of series [3] is HUVEC. Description: Antiangiogenic activity in HUVEC assessed as inhibition of vascular endothelial tube formation at 6.25 uM after 24 hrs by matrigel assay relative to control. The note with it: Homo sapiens. The class given is functional.
The nature of series [4]: Cytotoxicity against HUVEC assessed as cell viability at 3.12 uM after 24 hrs by MTT assay. The format is cell-based. The settings on record: human, HUVEC cells; read-out: Activity. In general terms: Tetrazolium assays rely on reduction of a dye to a coloured formazan, in cell work by metabolically active cells.
The subject of series [5] is HUVEC. Kind of series: Cytotoxicity against HUVEC assessed as reduction in cell viability at 100 uM after 24 hrs by MTT assay. The format is cell-based. The note with it: human.
Series [6] concerns HUVEC. Kind of series: Cytotoxicity against HUVEC assessed as reduction in cell viability up to 6.25 uM after 24 hrs by MTT assay. The format is cell-based. The note with it: human.
For series [7], the system named is HUVEC. Description: Cytotoxicity against HUVEC assessed as reduction in cell viability at 12.50 to 100 uM after 24 hrs by MTT assay. The class given is cell-based. The note with it: human.
A short description of series [8]: Cytotoxicity against HUVEC assessed as cell viability at 100 uM after 24 hrs by MTT assay. The class given is cell-based. The settings on record: human, HUVEC cells; read-out: Activity.
For series [9], the system named is MDA-MB-231. Kind of series: Antimetastatic activity against human MDA-MB-231 cells assessed as cell viability at 3.125 uM after 24 hrs by MTT assay relative to control. The settings on record: MDA-MB-231, 24 h, read-out: Activity. The format is functional.
Series [10] deals with MDA-MB-231. Description: Antimetastatic activity against human MDA-MB-231 cells assessed as reduction in cell viability at 6.25 uM after 24 hrs by MTT assay relative to control. The class given is functional.
Series [11] relates to MDA-MB-231. Kind of series: Antimetastatic activity against human MDA-MB-231 cells assessed as reduction in cell viability at 50 uM after 24 hrs by MTT assay relative to control. The format is functional.
The test system of series [12] is MDA-MB-231. Description: Antimetastatic activity against human MDA-MB-231 cells assessed as reduction in cell viability at 100 uM after 24 hrs by MTT assay relative to control. The class given is functional.
In series [13] the test system is MDA-MB-231. Description: Antimetastatic activity against human MDA-MB-231 cells assessed as reduction in cell viability at 200 uM after 24 hrs by MTT assay relative to control. The format is functional.
Series [14] relates to MCF7. Description: Antimetastatic activity against human MCF7 cells assessed as cell viability at 3.125 uM after 24 hrs by MTT assay relative to control. The format is functional. The settings on record: MCF7, 24 h, read-out: Activity.
For series [15], the system named is MCF7. Description: Antimetastatic activity against human MCF7 cells assessed as cell viability at 100 uM after 24 hrs by MTT assay relative to control. The note with it: MCF7, 24 h, read-out: Activity. The format is functional.
Series [16] concerns MDA-MB-231. Kind of series: Antimetastatic activity against human MDA-MB-231 cells assessed as reduction in cell viability at <6.25 uM after 24 hrs by MTT assay. The class given is functional, cell-based.
Series [17] has as its system MDA-MB-231. Description: Decrease in MMP9 mRNA expression in human MDA-MB-231 cells at 3.125 to 6.25 uM after 24 hrs by RT-PCR method. The class given is functional, cell-based.
Series [18] concerns MDA-MB-231. Kind of series: Downregulation of VEGF protein expression in human MDA-MB-231 cells at 3.125 uM after 24 hrs by Western blot analysis relative to control. The format is functional. In general terms: A western blot detects proteins with antibodies after separation by electrophoresis.
Series [19] concerns MDA-MB-231. Kind of series: Downregulation of VEGF protein expression in human MDA-MB-231 cells at 6.25 uM after 24 hrs by Western blot analysis relative to control. The class given is functional.
Series [20] concerns the target RAC-alpha serine/threonine-protein kinase (Homo sapiens) (UniProt P31749). Description: Inhibition of Akt phosphorylation in human MDA-MB-231 cells at 3.125 uM after 24 hrs by Western blot analysis relative to control. The format is cell-based.
For series [21] the target is unchanged. Kind of series: Inhibition of Akt phosphorylation in human MDA-MB-231 cells at 6.25 uM after 24 hrs by Western blot analysis relative to control. The class given is cell-based.
The species entered for series [22] is Homo sapiens. Kind of series: Inhibition of ERK phosphorylation in human MDA-MB-231 cells at 3.125 uM after 24 hrs by Western blot analysis relative to control. The format is cell-based.
The species entered for series [23] is Homo sapiens. Description: Inhibition of ERK phosphorylation in human MDA-MB-231 cells at 6.25 uM after 24 hrs by Western blot analysis relative to control. The class given is cell-based.
The species named for series [24] is Homo sapiens. Description: Inhibition of ERK phosphorylation in human MDA-MB-231 cells at […] after 24 hrs by Western blot analysis relative to control. The format is cell-based.

The source made the active and inactive calls. The calls are words filed in the database; no cut-off is given here.

RAC-alpha serine/threonine-protein kinase (Homo sapiens), sequence (P31749 whole entry): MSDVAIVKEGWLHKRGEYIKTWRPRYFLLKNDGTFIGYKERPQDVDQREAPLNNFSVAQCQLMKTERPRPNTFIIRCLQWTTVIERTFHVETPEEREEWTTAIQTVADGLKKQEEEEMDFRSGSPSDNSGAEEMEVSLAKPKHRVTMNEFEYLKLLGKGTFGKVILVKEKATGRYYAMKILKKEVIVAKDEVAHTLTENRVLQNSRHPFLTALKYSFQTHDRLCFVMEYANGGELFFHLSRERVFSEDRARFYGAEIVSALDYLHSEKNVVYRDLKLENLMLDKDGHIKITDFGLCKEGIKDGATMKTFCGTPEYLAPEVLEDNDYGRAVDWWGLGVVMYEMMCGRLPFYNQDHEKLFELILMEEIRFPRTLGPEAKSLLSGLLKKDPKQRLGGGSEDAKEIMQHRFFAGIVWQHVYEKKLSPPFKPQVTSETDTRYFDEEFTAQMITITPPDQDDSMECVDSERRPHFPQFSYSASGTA

One may read the inhibition as the change of the read-out against control, counted positive when it falls. Consider `COc1cc2oc(-c3ccc(O)cc3)cc(=O)c2c(O)c1OC` [CIRSIMARITIN], for which the Activity result is reported as “Dose-dependent effect” in the series with HUVEC [1]; 62.04% in the series with HUVEC [5]; “Non-Toxic” with HUVEC [6]; “Toxic” in the series with HUVEC [7]; 83.19% in the series with MDA-MB-231 [10]; 78.74% in the series with MDA-MB-231 [11]. Besides, the Activity in the series on MDA-MB-231 [12] was 38.56%; in the series with MDA-MB-231 [13], 52.73%. For the same molecule, the inhibition at 3.125 µM in the series with HUVEC [2] was found to be 18.1%. The inhibition at 6.25 µM with HUVEC [3] turned out to be 32.2%. Moreover, the viability at 24 h, 3.12 µM in [4] came out at 89.9%. The viability at 24 h, 100 µM in series [8] is 38%. In addition, the results for the viability at 3.125 µM with MDA-MB-231 [9] and in the series on MCF7 [14] were 88.2% and 81.8%, respectively. For the same molecule, in the series on MCF7 [15], the viability at 100 µM came out at 53.4%. In the series with MDA-MB-231 [16], the result was inactive. The result in the series on MDA-MB-231 [17] was Active. Further, the “fold change (FC)” value was 0.78 in the series on MDA-MB-231 [18]; 0.78 in the series with MDA-MB-231 [19]; 0.68 in series [20]; 0.66 in [21]; 0.8 in the series listed under Homo sapiens [22]; 0.57 in the series listed under Homo sapiens [23]. Besides, the inhibition in the series filed under Homo sapiens [24] was found to be 43%.

Take `COc1cccc2c1C(=O)c1c(O)c3c(c(O)c1C2=O)C[C@@](O)(C(=O)CO)C[C@@H]3O[C@H]1C[C@H](N)[C@H](O)[C@H](C)O1` [DOXORUBICIN]: the viability at 24 h, 3.12 µM in [4] was 14.2%. Further, the viability at 24 h, 100 µM in series [8] was 11.7%.
